Laboratory results as given in US20140349955A1, “USE OF FLUORINE-CONTAINING WATER SOLUBLE PLATINUM COMPLEX IN PREPARING DRUGS FOR PREVENTION AND TREATMENT OF CANCERS” (GUDUI BIOPHARMA TECHNOLOGY INC., priority 2011, published 2014).

Key:
H460 = assay: Synergistic cytotoxicity test (MTS), H460; assay type: cell-based, human; conditions: 96 h
Protocol: (§1) Containing 10% bovine fetal serum, 1 mM of sodium pyruvate, 2 mM of L-glutamine, 50 U/mL of penicillin, 50 μg/ mL of streptomycin.
(§2) Human tumor cells: du145-human prostate cancer; MCF-7-human breast cancer; SK0V3-human ovarian carcinoma, HT-29-human colon cancer; A549-human non-small cell lung cancer (adenocarcinoma), H460-human non-small cell lung cancer (large cell carcinoma), and animal tumor cells: L1210-mice leukemia cells used in the following activity test experiments were all purchased from Shanghai An Yan Commercial Trade Co., Ltd.
(§3) MTS test method was used in cytotoxicity assay. The tumor cells of logarithmic phase were collected, and then the concentration of cell suspension was adjusted, 100 μL of the cell suspension was added to each well, the cells were placed at 1000-10000 cells/well (edge well filled with sterile PBS). Cells were incubated at 37° C. with 5% CO2 to make cell monolayer overspread the bottom of each well (96-well flat-bottomed microplate). 100 μL of certain concentration solution of a mixture of the fluorine-containing water-soluble platinum complex with other antitumor agents was added to each well. Each condition was measured in five replicates. The microplate was incubated at 37° C. with 5% CO2 for 96 h and checked with inverted microscope. MTS working reagent: To 2 mL of MTS (2 mg/mL, prepared by DPBS) was added 100 μL of PMS (1 mg/mL, prepared by DPBS). The cell culture medium was discarded after centrifugation, the cell culture plate was carefully washed 2-3 times with PBS. Before detecting the absorbance value (OD), to each sample containing well was added 100 μL of cell culture medium, then 20 μL of MTS working reagent was added. After incubation at 37° C. with 5% CO2 for 2 h, the OD (optical density) value was detected at 490 nm.
(§4) Each of above experiment was repeated five times, and the cell viability was calculated according to the mean OD values.
(§5) Cell Viability (%)=(treated group OD value/control group OD value)×100
(§6) Control group: the conditions are the same as the above without adding the tested drug mixture (100 μL of culture medium was added in stead), and finally the absorbance was measured at 490 nm to obtain the OD value of the tumor cells.
(§7) Drug Group-1: only the fluorine-containing water-soluble platinum complex was added under the above conditions to obtain cell viability of tumor cells.
(§8) Drug Group-2: only the other chemotherapeutic drug (active ingredient) was added under the above conditions to obtain cell viability of tumor cells.
(§9) Drug Combination Group: the fluorine-containing water-soluble platinum complex and other chemotherapeutic drugs were added simultaneously under the above conditions to obtain cell viability of tumor cell. (2) Evaluation Method:
(§10) When the fluorine-containing water-soluble platinum complexes used in combination with other chemotherapy drugs, the inhibition effect on cancer cell proliferation is enhanced or synergistic, and the effect was calculated using the following formula:
(§11) Combination Effect (%)={[(A1-X)+(A2-X)]/(A1-A2)|}×100
(§12) wherein, A1 is the cell viability of drug group-1, A2 is the cell viability of drug group-2, X is the cell viability of drug combination group, (A1-A2)| is the absolute value of the cell viability difference between the two groups.
(§13) Calculated according to the above formula, when the results of [Combination Effect (%)]>+100%, that means the effect of inhibition on cell proliferation is enhanced or synergistic (3) Experimental Result: […]

A549 = assay: Synergistic cytotoxicity test (MTS), A549; assay type: cell-based, human; conditions: 96 h
Protocol: as §1, §2, §3, §4, §5, §6, §7, §8, §9, §10, §11, §12, §13

SK0V3 = assay: Synergistic cytotoxicity test (MTS), SKOV3; assay type: cell-based, human; conditions: 96 h
Protocol: as §1, §2, §3, §4, §5, §6, §7, §8, §9, §10, §11, §12, §13

MCF7 = assay: Synergistic cytotoxicity test (MTS), MCF7; assay type: cell-based, human; conditions: 96 h
Protocol: as §1, §2, §3, §4, §5, §6, §7, §8, §9, §10, §11, §12, §13

HT29 = assay: Synergistic cytotoxicity test (MTS), HT29; assay type: cell-based, human; conditions: 96 h
Protocol: as §1, §2, §3, §4, §5, §6, §7, §8, §9, §10, §11, §12, §13

DU145 = assay: Synergistic cytotoxicity test (MTS), DU145; assay type: cell-based, human; conditions: 96 h
Protocol: as §1, §2, §3, §4, §5, §6, §7, §8, §9, §10, §11, §12, §13

L1210 tumor cells = assay: Antitumor efficacy in L1210 tumor-bearing CDF1 mice (increase in life span); assay type: in vivo
Protocol: In the following test, antitumor efficacy studies were performed using 8-9 weeks old female CDF1 mice, the average weight of the animal is 20-25 grams. L1210 tumor cells (about 10^5 cells per mouse) were inoculated intraperitoneally. The fluorine-containing water-soluble platinum complexes were used to treat the tumor-bearing animals and the efficacy was compared compared with the clinical platinum antitumor drugs. […] Drugs were administered intraperitoneally on day 1 and day 4 after tumor cell transplantation. The number of experimental animals in each group was 6.
The experimental animals were purchased from Vital River Laboratory Animal Technology Co. Ltd., Tumor cells L1210-leukemia cells were purchased from Shanghai An Yan Commercial Trade Co. Ltd.
The increase in life span (ILS) is calculated as follows:
Wherein, St=the weighted median survival time of treated animals; Su=the weighted median survival time of untreated animals

[1] = other chemotherapy drug (at its listed dosage) combined with Complex 5 (dosage: 1 μM)
[2] = other chemotherapy drug (at its listed dosage) combined with Complex 6 (dosage: 1 μM)
[3] = other chemotherapy drug (at its listed dosage) combined with Complex 2 (dosage: 1 μM)
[4] = other chemotherapy drug (at its listed dosage) combined with Complex 3 (dosage: 1 μM)
[5] = other chemotherapy drug (at its listed dosage) combined with Complex 2 (dosage: 1 μM), SLOV3
[6] = other chemotherapy drug (at its listed dosage) combined with Complex 3 (dosage: 1 μM), SlOV3
[7] = other chemotherapy drug (at its listed dosage) combined with Complex 5 (dosage: 1 μM), SLOV3
[8] = other chemotherapy drug (at its listed dosage) combined with Complex 6 (dosage: 1 μM), SLOV3
[9] = 1.25 mg/Kg i.p. on day 1 and day 4
[10] = 2.5 mg/Kg i.p. on day 1 and day 4
[11] = 5.0 mg/Kg i.p. on day 1 and day 4
[12] = 50 mg/Kg i.p. on day 1 and day 4
[13] = 100 mg/Kg i.p. on day 1 and day 4
[14] = 200 mg/Kg i.p. on day 1 and day 4

| SMILES | the effect of drug combination (Combination Effect) (H460; [1]) | the effect of drug combination (Combination Effect) (H460; [2]) | the effect of drug combination (Combination Effect) (A549; [3]) | the effect of drug combination (Combination Effect) (A549; [4]) | the effect of drug combination (Combination Effect) (SK0V3; [5]) | the effect of drug combination (Combination Effect) (SK0V3; [6]) | the effect of drug combination (Combination Effect) (SK0V3; [7]) | the effect of drug combination (Combination Effect) (SK0V3; [8]) | the effect of drug combination (Combination Effect) (MCF7; [3]) | the effect of drug combination (Combination Effect) (MCF7; [4]) | the effect of drug combination (Combination Effect) (MCF7; [1]) | the effect of drug combination (Combination Effect) (MCF7; [2]) | the effect of drug combination (Combination Effect) (HT29; [3]) | the effect of drug combination (Combination Effect) (HT29; [4]) | the effect of drug combination (Combination Effect) (HT29; [1]) | the effect of drug combination (Combination Effect) (HT29; [2]) | the effect of drug combination (Combination Effect) (DU145; [3]) | the effect of drug combination (Combination Effect) (DU145; [4]) | the effect of drug combination (Combination Effect) (DU145; [1]) | the effect of drug combination (Combination Effect) (DU145; [2]) | further results |
| --- | --- | --- | --- | --- | --- | --- | --- | --- | --- | --- | --- | --- | --- | --- | --- | --- | --- | --- | --- | --- | --- |
| O=c1[nH]cc(F)c(=O)[nH]1 [5-Fluorouracil] | ⊚ (⊚ represents the effect of drug combination > 300%) | ⊚ (⊚ represents the effect of drug combination > 300%) | ⊚ (⊚ represents the effect of drug combination > 300%) | ⊚ (⊚ represents the effect of drug combination > 300%) | ⊚ (⊚ represents the effect of drug combination > 300%) | ⊚ (⊚ represents the effect of drug combination > 300%) | ⊚ (⊚ represents the effect of drug combination > 300%) | ⊚ (⊚ represents the effect of drug combination > 300%) | ⊚ (⊚ represents the effect of drug combination > 300%) | ⊚ (⊚ represents the effect of drug combination > 300%) | ⊚ (⊚ represents the effect of drug combination > 300%) | ⊚ (⊚ represents the effect of drug combination > 300%) | ⊚ (⊚ represents the effect of drug combination > 300%) | ⊚ (⊚ represents the effect of drug combination > 300%) | ⊚ (⊚ represents the effect of drug combination > 300%) | ⊚ (⊚ represents the effect of drug combination > 300%) | ⊚ (⊚ represents the effect of drug combination > 300%) | ⊚ (⊚ represents the effect of drug combination > 300%) | ⊚ (⊚ represents the effect of drug combination > 300%) | ⊚ (⊚ represents the effect of drug combination > 300%) | – |
| N.N.[Cl][Pt][Cl] [Cisplatin] | – | – | – | – | – | – | – | – | – | – | – | – | – | – | – | – | – | – | – | – | ILS (%) (L1210 tumor cells; [9]): 36%; Survived Animals on Day 42 (L1210 tumor cells; [9]): 0/6; ILS (%) (L1210 tumor cells; [10]): 100%; Survived Animals on Day 42 (L1210 tumor cells; [10]): 0/6; ILS (%) (L1210 tumor cells; [11]): 236%; Survived Animals on Day 42 (L1210 tumor cells; [11]): 3/6 |
| CCCCCOC(=O)Nc1nc(=O)n([C@@H]2O[C@H](C)[C@@H](O)[C@H]2O)cc1F [Capecitabine] | ○ (○ represents: 100% < the effect of drug combination < 300%) | ○ (○ represents: 100% < the effect of drug combination < 300%) | ○ (○ represents: 100% < the effect of drug combination < 300%) | ○ (○ represents: 100% < the effect of drug combination < 300%) | ○ (○ represents: 100% < the effect of drug combination < 300%) | ○ (○ represents: 100% < the effect of drug combination < 300%) | ○ (○ represents: 100% < the effect of drug combination < 300%) | ○ (○ represents: 100% < the effect of drug combination < 300%) | ⊚ (⊚ represents the effect of drug combination > 300%) | ⊚ (⊚ represents the effect of drug combination > 300%) | ⊚ (⊚ represents the effect of drug combination > 300%) | ⊚ (⊚ represents the effect of drug combination > 300%) | ⊚ (⊚ represents the effect of drug combination > 300%) | ○ (○ represents: 100% < the effect of drug combination < 300%) | ○ (○ represents: 100% < the effect of drug combination < 300%) | ○ (○ represents: 100% < the effect of drug combination < 300%) | ○ (○ represents: 100% < the effect of drug combination < 300%) | ○ (○ represents: 100% < the effect of drug combination < 300%) | ○ (○ represents: 100% < the effect of drug combination < 300%) | ○ (○ represents: 100% < the effect of drug combination < 300%) | – |
| [NH2][Pt]1([NH2])[O]C(=O)C(F)(CCCOC2OC(CO)C(O)C(O)C2O)C(=O)[O]1 (stereo not shown) [Complex 15] | – | – | – | – | – | – | – | – | – | – | – | – | – | – | – | – | – | – | – | – | ILS (%) (L1210 tumor cells; [12]): >380%; Survived Animals on Day 42 (L1210 tumor cells; [12]): 6/6; Weight Changes (g) (L1210 tumor cells; 50 mg/Kg i.p. on day 1 and day 4, weight changes from the first day to the seventh day): +1.0 g; ILS (%) (L1210 tumor cells; [13]): >380%; Survived Animals on Day 42 (L1210 tumor cells; [13]): 6/6; Weight Changes (L1210 tumor cells; 100 mg/Kg i.p. on day 1 and day 4, weight changes from the first day to the seventh day): -0.3 g; ILS (%) (L1210 tumor cells; [14]): >380%; Survived Animals on Day 42 (L1210 tumor cells; [14]): 6/6; Weight Changes (L1210 tumor cells; 200 mg/Kg i.p. on day 1 and day 4, weight changes from the first day to the seventh day): -0.8 g |
